# System: RAW264.7
# Assay: Antiinflammatory activity against mouse RAW264.7 cells assessed as inhibition of HMGB1-induced NO production pretreated with compounds for 15 mins followed by HMGB1 stimulation measured after 24 hrs by Griess reagent based assay
# Type: functional, cell-based
row,IC50,SMILES
1,> 100 µM,C[C@@]1(CO)C[C@@H](O)[C@]2(C)CC[C@]3(C)C(=CC[C@@H]4[C@@](C)(CCC(=O)O)[C@H]([C@](C)(O)CO)CC[C@]43C)[C@@H]2C1
2,> 100 µM,C=C(CO)[C@@H]1CC[C@]2(C(=O)O)CC[C@]3(C)[C@H](CC[C@@H]4[C@@](C)(CCC(=O)OC)[C@H](C(C)(C)O)CC[C@]43C)[C@@H]12
3,> 100 µM,CC1(C)C[C@H]2C3=CC[C@@H]4[C@@]5(C)CC[C@H](O)[C@](C)(CO)[C@@H]5CC[C@@]4(C)[C@]3(C)CC[C@@]2(C)[C@H](O)[C@@H]1O [SOYASAPOGENOL A]
4,15.9 µM,CC1(C)C[C@H]2C3=CC[C@@H]4[C@@](C)(CCC(=O)O)[C@H]([C@](C)(O)CO)CC[C@@]4(C)[C@]3(C)CC[C@@]2(C)[C@H](O)[C@H]1O
5,> 100 µM,CC1(C)C[C@@H](O)[C@]2(C)CC[C@]3(C)C(=CC[C@@H]4[C@@](C)(CCC(=O)O)[C@H]([C@](C)(O)CO)CC[C@]43C)[C@@H]2C1
6,> 100 µM,C=C(C)[C@@H]1CC[C@]2(C(=O)O)CC[C@]3(C)[C@H](CC[C@@H]4[C@@](C)(CCC(=O)OC)[C@H](C(C)(C)O)CC[C@]43C)[C@@H]12
7,11.4 µM,CC1(C)[C@@H](OC(=O)CCC(=O)O)CC[C@]2(C)[C@H]3C(=O)C=C4[C@@H]5C[C@@](C)(C(=O)O)CC[C@]5(C)CC[C@@]4(C)[C@]3(C)CC[C@@H]12 [CARBENOXOLONE]
8,> 100 µM,CC1(C)C[C@H]2C3=CC[C@@H]4[C@@](C)(CCC(=O)O)[C@H]([C@](C)(O)CO)CC[C@@]4(C)[C@]3(C)C[C@@H](O)[C@@]2(CO)[C@@H](O)[C@@H]1O
9,> 100 µM,CC(O)(CO)[C@@H]1CC[C@]2(C)[C@H](CC=C3[C@@H]4C[C@@](C)(CO)C[C@@H](O)[C@]4(C)CC[C@]32C)[C@@]1(C)CCC(=O)O (some centres not stated)
10,> 100 µM,C[C@@]1(CO)C[C@H]2C3=CC[C@@H]4[C@@](C)(CCC(=O)O)[C@H]([C@](C)(O)CO)CC[C@@]4(C)[C@]3(C)CC[C@@]2(C)[C@H](O)[C@@H]1O
11,36 µM,C[C@]1(CO)C[C@H]2C3=CC[C@@H]4[C@@](C)(CCC(=O)O)[C@H]([C@](C)(O)CO)CC[C@@]4(C)[C@]3(C)CC[C@@]2(C)[C@H](O)[C@@H]1O
12,> 100 µM,CC1(C)C[C@@H](O)[C@]2(C)CC[C@]3(C)C(=CC[C@@H]4[C@@]5(C)CC[C@H](O)[C@](C)(CO)[C@@H]5CC[C@]43C)[C@@H]2C1 [SOYASAPOGENOL B]
13,> 100 µM,C=C(C)[C@@H]1CC[C@]2(C(=O)O)CC[C@]3(C)[C@H](CC[C@@H]4[C@@](C)(CCC(=O)O)[C@H](C(C)(C)O)CC[C@]43C)[C@@H]12
14,> 100 µM,C=C(CO)[C@@H]1CC[C@]2(C(=O)O)CC[C@]3(C)[C@H](CC[C@@H]4[C@@](C)(CCC(=O)O)[C@H](C(C)(C)O)CC[C@]43C)[C@@H]12
15,> 100 µM,COC(=O)CC[C@@]1(C)[C@H]([C@](C)(O)CO)CC[C@]2(C)[C@@H]1CC=C1[C@@H]3C[C@@](C)(CO)C[C@@H](O)[C@]3(C)CC[C@]12C
16,> 100 µM,CC1(C)C[C@H]2C3=CC[C@@H]4[C@@](C)(CCC(=O)O)[C@H]([C@](C)(O)CO)CC[C@@]4(C)[C@]3(C)CC[C@@]2(C)[C@H](O)[C@@H]1O

row,SMILES,IC50
1,C=C(C)[C@@H]1CC[C@]2(C(=O)O)CC[C@]3(C)[C@H](CC[C@@H]4[C@@]5(C)CC[C@H](O)C(C)(C)[C@@H]5CC[C@]43C)[C@@H]12 [BETULINIC ACID],> 100 µM

# Reference: ChEMBL document CHEMBL5053544, “Microbial transformation of pentacyclic triterpenes for anti-inflammatory agents on the HMGB1 stimulated RAW 264.7 cells by Streptomyces olivaceus CICC 23628” (Bioorg Med Chem, 2021)
